Reference: BigSolDB 2.1

Cc1c([N+](=O)[O-])c(C)c([N+](=O)[O-])c(C(C)(C)C)c1[N+](=O)[O-]
solubility (mole fraction)
Settings | in DMAc | in THF | in cyclohexane | in ethanol | in ethyl acetate | in isopropanol | in methanol | in n-butanol | in n-heptane | in n-hexane
278.15 K | 0.0918 | 0.0786 | 0.00467 | 0.00168 | 0.0953 | 0.00128 | 0.00185 | 0.00245 | 0.00262 | 0.00225
283.15 K | 0.112 | 0.0889 | 0.00588 | 0.00207 | 0.115 | 0.00165 | 0.00234 | 0.00308 | 0.00321 | 0.00284
288.15 K | 0.134 | 0.1 | 0.00739 | 0.00254 | 0.136 | 0.00211 | 0.00295 | 0.00374 | 0.00402 | 0.00359
293.15 K | 0.156 | 0.112 | 0.00925 | 0.00311 | 0.158 | 0.00269 | 0.00369 | 0.0045 | 0.00496 | 0.00437
298.15 K | 0.179 | 0.126 | 0.0116 | 0.00378 | 0.182 | 0.00343 | 0.00459 | 0.00553 | 0.00609 | 0.00557
303.15 K | 0.205 | 0.139 | 0.0145 | 0.00458 | 0.207 | 0.00437 | 0.00569 | 0.00666 | 0.00752 | 0.00685
308.15 K | 0.232 | 0.156 | 0.0182 | 0.00552 | 0.233 | 0.00557 | 0.00704 | 0.00806 | 0.00931 | 0.00842
313.15 K | 0.263 | 0.173 | 0.0229 | 0.00663 | 0.262 | 0.00713 | 0.00868 | 0.00974 | 0.0114 | 0.0104
